Laboratory results as given in ChEMBL document CHEMBL5620412, “Discovery of benzofuran-2-carboxylic acid derivatives as lymphoid tyrosine phosphatase (LYP) inhibitors for cancer immunotherapy” (Eur J Med Chem, 2023).

Experiments:
[1] = molecular target: T1, Tyrosine-protein phosphatase non-receptor type 1 (Homo sapiens, UniProt P18031); test: Inhibition of N-terminal His-tagged PTP1B catalytic domain (1 to 294 residues) (unknown origin) expressed in Escherichia coli BL21 (DE3) cells
T1 sequence (P18031 whole entry): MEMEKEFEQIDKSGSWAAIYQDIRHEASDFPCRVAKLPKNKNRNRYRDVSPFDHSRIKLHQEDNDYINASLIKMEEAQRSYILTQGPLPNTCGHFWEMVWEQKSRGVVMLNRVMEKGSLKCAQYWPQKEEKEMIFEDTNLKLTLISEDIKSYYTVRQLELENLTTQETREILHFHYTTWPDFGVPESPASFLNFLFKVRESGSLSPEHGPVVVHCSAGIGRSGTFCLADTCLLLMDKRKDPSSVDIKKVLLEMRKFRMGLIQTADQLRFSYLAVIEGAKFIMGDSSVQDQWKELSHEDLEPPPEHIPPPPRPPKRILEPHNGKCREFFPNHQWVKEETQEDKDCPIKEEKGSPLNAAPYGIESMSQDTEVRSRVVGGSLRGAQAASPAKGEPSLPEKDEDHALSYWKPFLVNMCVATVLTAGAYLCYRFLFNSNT

[2] = molecular target: T2, Tyrosine-protein phosphatase non-receptor type 5 (Homo sapiens, UniProt P54829); test: Inhibition of N-terminal His-tagged PTPN5 catalytic domain (1 to 294 residues) (unknown origin) expressed in Escherichia coli BL21 (DE3) cells
T2 sequence (P54829 whole entry): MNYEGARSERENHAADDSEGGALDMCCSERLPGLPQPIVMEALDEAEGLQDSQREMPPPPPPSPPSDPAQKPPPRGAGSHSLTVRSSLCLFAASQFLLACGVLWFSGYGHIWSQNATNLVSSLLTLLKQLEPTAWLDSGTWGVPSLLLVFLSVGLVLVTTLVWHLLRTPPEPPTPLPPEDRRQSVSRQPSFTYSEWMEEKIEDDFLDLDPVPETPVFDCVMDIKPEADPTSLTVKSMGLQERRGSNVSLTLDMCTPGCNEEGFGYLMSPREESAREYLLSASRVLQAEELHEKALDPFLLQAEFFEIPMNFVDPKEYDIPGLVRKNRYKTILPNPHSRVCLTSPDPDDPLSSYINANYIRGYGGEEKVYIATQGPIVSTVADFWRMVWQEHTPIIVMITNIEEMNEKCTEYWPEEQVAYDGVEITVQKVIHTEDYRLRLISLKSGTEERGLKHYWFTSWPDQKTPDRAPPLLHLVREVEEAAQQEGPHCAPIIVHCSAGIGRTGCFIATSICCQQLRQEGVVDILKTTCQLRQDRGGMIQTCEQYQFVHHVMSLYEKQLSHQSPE

[3] = (§1) Selectivity ratio of IC50 for inhibition of N-terminal His-tagged PTPN12 catalytic domain (1 to 294 residues) (unknown origin) expressed in Escherichia coli BL21 (DE3) cells to IC50 for inhibition of N-terminal His-tagged LYP catalytic domain (1 to 294 residues) (unknown origin) expressed in Escherichia coli BL21 (DE3) cells using pNPP as substrate
[4] = as §1, with “SSH2” for “PTPN12”
[5] = as §1, with “PTP1B” for “PTPN12”
[6] = molecular target: T3, Tyrosine-protein phosphatase non-receptor type 22 (Homo sapiens, UniProt Q9Y2R2); test: Competitive inhibition of N-terminal His-tagged LYP catalytic domain (1 to 294 residues) (unknown origin) expressed in Escherichia coli BL21 (DE3) cells using pNPP as substrate assessed as inhibition constant by Lineweaver-Burk plot analysis
T3 sequence (Q9Y2R2 whole entry): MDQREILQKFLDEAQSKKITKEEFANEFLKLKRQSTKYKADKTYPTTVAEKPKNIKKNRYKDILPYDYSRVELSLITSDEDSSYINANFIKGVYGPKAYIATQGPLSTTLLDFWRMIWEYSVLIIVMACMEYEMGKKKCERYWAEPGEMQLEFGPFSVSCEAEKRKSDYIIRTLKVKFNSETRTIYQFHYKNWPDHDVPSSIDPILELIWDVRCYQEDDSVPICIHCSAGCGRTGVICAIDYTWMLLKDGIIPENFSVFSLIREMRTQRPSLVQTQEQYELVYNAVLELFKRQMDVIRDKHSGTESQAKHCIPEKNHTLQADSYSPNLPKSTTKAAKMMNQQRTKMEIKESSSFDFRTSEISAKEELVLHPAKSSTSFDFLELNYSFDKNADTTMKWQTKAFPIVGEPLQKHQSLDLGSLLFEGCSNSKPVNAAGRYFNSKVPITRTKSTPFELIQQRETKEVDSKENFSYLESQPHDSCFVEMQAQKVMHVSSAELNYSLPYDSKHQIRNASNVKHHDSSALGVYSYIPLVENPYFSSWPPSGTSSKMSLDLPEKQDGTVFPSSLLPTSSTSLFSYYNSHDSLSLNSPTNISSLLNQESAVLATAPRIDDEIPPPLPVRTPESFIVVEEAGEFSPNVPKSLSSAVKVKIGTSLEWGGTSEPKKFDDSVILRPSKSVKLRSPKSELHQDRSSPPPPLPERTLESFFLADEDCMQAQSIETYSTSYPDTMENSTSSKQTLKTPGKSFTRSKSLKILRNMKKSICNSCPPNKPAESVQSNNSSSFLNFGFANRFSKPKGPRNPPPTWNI

[7] = molecular target: T3, Tyrosine-protein phosphatase non-receptor type 22; test: Inhibition of N-terminal His-tagged LYP catalytic domain (1 to 294 residues) (unknown origin) expressed in Escherichia coli BL21 (DE3) cells using pNPP as substrate by absorbance based plate reader analysis

Row | Structure (SMILES) | IC50 [1] [µM] | IC50 [2] [µM] | Ki [6] [µM] | IC50 [7] [µM] | Ratio IC50 [3] | Ratio IC50 [4] | Ratio IC50 [5]
1 | O=C(O)c1cc2cc(N(Cc3cccc(-c4ccccc4)c3)S(=O)(=O)c3ccc(-c4ccccc4)cc3)ccc2o1 | 5.9 | > 20 |  | 3.23 | 1.8 | > 5.5 | 1.8
2 | CC(=O)C1=C(C)N=c2s/c(=C/c3ccc(OCc4ccc(C(=O)O)cc4)cc3)c(=O)n2C1c1ccc(N(C)C)cc1 (stereo not drawn) | 7.1 | > 20 | 4.38 | 6.1 | 1.2 |  | 1.2

More lines, in order of falling IC50 [1], values ahead:

Row | IC50 [1] [µM] | IC50 [2] [µM] | Ki [6] [µM] | IC50 [7] [µM] | Structure (SMILES) | Ratio IC50 [3] | Ratio IC50 [4] | Ratio IC50 [5]
3 | 13.7 | > 20 | 1.34 |  | COc1ccc(-c2ccc(CN(c3ccc4oc(C(=O)O)cc4c3)S(=O)(=O)c3ccc(Cl)c([N+](=O)[O-])c3)cc2)cc1 |  |  | 
4 | 10.7 | > 20 | 0.93 | 2.55 | O=C(O)c1cc2cc(N(Cc3ccc(OCc4ccccc4)cc3)S(=O)(=O)c3ccc(-c4ccccc4)cc3)ccc2o1 | > 3.5 | > 5.5 | > 3.5
5 | 6.4 | > 20 |  | 3.59 | O=C(O)c1cc2cc(N(Cc3ccc(-c4ccccc4)cc3)S(=O)(=O)c3ccc(-c4cccc(O)c4)cc3)ccc2o1 | 1.8 | > 5.5 | 1.8
